Columns and labels:
[1] = tested on: chikungunya virus (CHIKV); experiment: Chikungunya virus-cell based antiviral assay (inhibition of virus-induced cell death, MTS readout); conditions: for EC50: Chikungunya virus, Vero, read-out: EC50 (50% effective concentration, inhibits CHIKV-induced cell death by 50%); for selectivity index (SI), CC50 Vero/EC50 CHIKV: ratio of CC50 to EC50
in vitro = conditions: African green monkey

Row | SMILES | EC50 [1] [µM] | CC50 (in vitro) [µM] | selectivity index (SI), CC50 Vero/EC50 CHIKV [1]
1 | CCN(CC)CCCC(C)Nc1ccnc2cc(Cl)ccc12 (centres unmarked) [Chloroquine, chloroquine, reference compound] | 10 ± 5 | 89 ± 28 | –
2 | C=C(C)C12OC3(c4ccccc4)OC1C1C4OC4(CO)C(O)C4(O)C(O)C(C)=CC4C1(O3)C(C)C2OC(=O)C(C)CCCCCCCC (centres unmarked) [Compound 1, Trigocherrierin A] | 0.6 ± 0.1 | 43 ± 16 | 71.7
3 | CC1CCCCCCC(C)C(=O)OC2C(=CCl)C=C3C2(O)C(O)C2(CO)OC2C2C4OC5(c6ccccc6)OC(C(C)C32O5)C4(O)C(O)(CO)C1 (centres unmarked) [Compound 2, Trigocherriolide E] | 0.7 ± 0.1 | 6.6 ± 0.6 | 9.4

Reference: article PMC6270878, “Trigocherrierin A, a Potent Inhibitor of Chikungunya Virus Replication” (Molecules, 2014)
